According to ChEMBL document CHEMBL5465560, “Selectivity Literature for EUbOPEN Chemogenomic Library” (2024):

Tests used:
[1] = molecular target: Bone morphogenetic protein receptor type-1B (Homo sapiens, UniProt O00238); conditions: at 10 µM
[2] = molecular target: Dual specificity protein kinase CLK4 (Homo sapiens, UniProt Q9HAZ1); assay: Selectivity interaction (KinomeScan (DiscoverX)) EUB0001049a CLK4; conditions: at 1 µM
[3] = molecular target: T1, Serine/threonine-protein kinase D1 (Homo sapiens) (UniProt Q15139); assay: Selectivity interaction (ProQinase) EUB0000171b PRKD1
T1 sequence (whole entry): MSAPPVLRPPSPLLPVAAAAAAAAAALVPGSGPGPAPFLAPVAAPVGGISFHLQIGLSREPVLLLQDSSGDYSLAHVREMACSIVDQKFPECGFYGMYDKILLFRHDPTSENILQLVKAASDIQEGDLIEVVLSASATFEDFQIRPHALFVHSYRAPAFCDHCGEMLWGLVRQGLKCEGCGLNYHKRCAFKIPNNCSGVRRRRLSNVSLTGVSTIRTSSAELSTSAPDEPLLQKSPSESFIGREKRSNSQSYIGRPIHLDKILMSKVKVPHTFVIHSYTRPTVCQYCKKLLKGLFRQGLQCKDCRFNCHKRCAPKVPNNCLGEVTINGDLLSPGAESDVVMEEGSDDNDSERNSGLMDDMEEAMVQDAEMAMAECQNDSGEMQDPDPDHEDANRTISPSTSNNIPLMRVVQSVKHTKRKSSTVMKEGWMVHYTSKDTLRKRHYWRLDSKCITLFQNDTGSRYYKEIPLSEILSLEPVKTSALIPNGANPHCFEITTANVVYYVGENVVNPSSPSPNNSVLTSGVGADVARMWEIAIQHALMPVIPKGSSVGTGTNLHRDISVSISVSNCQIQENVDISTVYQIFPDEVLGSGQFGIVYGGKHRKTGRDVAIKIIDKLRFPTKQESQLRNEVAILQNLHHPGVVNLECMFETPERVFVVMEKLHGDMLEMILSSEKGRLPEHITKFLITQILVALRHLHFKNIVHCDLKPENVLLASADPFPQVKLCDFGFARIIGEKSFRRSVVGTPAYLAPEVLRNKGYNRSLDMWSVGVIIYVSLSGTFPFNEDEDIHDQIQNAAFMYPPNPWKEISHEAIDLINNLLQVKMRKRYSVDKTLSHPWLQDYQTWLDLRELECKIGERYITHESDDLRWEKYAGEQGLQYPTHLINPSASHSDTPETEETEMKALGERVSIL

[4] = molecular target: Calcium/calmodulin-dependent protein kinase type II subunit gamma (Homo sapiens) (UniProt Q13555); assay: Selectivity interaction (ProQinase) EUB0000171b CAMK2G
[5] = molecular target: T2, Serine/threonine-protein kinase ULK3 (Homo sapiens) (UniProt Q6PHR2); assay: Selectivity interaction (ActivX KiNativ screen (kinase selectivity in THP-1 cell lysates)) EUB0000639a ULK3; format: subcellular; conditions: lysate, at 1 µM
T2 sequence (whole entry): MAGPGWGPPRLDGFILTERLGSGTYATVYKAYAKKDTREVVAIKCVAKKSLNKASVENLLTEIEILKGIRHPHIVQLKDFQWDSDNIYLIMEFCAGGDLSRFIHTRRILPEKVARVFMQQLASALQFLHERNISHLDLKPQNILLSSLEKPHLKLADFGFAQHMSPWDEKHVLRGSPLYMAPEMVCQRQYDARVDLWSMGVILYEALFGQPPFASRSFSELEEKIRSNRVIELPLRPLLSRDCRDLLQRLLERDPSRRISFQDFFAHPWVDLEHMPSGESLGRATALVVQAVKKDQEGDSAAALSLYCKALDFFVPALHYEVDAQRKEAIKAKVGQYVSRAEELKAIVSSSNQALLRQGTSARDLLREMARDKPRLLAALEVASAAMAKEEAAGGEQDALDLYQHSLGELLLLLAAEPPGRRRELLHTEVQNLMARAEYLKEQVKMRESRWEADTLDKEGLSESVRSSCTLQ

[6] = molecular target: T3, Dual specificity protein kinase TTK (Homo sapiens) (UniProt P33981); conditions: at 10 µM
T3 sequence (whole entry): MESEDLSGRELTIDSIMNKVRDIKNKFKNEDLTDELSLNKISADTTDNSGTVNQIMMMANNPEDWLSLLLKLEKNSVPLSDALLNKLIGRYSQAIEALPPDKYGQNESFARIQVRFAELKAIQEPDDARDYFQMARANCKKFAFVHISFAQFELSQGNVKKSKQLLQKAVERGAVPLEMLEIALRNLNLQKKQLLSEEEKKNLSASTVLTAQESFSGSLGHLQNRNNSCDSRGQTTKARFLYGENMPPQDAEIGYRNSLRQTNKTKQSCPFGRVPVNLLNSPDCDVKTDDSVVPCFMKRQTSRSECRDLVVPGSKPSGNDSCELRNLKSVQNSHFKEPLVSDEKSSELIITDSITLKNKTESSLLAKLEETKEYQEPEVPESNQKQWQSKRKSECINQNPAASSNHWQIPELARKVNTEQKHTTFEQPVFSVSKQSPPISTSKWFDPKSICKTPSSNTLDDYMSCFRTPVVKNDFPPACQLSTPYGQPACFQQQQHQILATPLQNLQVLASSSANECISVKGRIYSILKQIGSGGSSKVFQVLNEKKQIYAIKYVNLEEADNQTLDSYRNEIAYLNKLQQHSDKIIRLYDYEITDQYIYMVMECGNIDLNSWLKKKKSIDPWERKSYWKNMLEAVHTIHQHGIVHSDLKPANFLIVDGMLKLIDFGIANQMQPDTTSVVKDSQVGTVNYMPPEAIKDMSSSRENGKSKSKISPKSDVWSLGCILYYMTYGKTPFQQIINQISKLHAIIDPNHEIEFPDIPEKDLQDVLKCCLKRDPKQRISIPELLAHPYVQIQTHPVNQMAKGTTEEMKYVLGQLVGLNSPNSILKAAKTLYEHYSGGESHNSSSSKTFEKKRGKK

Calcium/calmodulin-dependent protein kinase type II subunit gamma (Homo sapiens), sequence (Q13555 whole entry): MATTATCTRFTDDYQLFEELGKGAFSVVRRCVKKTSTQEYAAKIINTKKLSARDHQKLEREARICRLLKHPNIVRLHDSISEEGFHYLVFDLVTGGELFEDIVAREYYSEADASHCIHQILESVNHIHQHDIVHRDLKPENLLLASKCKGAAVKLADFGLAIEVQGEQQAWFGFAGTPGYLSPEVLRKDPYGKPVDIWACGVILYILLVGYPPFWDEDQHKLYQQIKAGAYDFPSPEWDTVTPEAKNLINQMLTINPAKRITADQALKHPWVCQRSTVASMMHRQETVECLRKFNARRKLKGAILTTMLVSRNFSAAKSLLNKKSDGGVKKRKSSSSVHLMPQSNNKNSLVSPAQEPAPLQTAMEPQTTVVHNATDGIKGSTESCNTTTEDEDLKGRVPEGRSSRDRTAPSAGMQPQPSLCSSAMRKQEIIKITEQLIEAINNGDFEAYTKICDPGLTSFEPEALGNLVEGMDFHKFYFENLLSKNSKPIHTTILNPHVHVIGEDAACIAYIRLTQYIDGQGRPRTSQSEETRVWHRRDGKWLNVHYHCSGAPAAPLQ
Bone morphogenetic protein receptor type-1B, sequence (O00238 whole entry): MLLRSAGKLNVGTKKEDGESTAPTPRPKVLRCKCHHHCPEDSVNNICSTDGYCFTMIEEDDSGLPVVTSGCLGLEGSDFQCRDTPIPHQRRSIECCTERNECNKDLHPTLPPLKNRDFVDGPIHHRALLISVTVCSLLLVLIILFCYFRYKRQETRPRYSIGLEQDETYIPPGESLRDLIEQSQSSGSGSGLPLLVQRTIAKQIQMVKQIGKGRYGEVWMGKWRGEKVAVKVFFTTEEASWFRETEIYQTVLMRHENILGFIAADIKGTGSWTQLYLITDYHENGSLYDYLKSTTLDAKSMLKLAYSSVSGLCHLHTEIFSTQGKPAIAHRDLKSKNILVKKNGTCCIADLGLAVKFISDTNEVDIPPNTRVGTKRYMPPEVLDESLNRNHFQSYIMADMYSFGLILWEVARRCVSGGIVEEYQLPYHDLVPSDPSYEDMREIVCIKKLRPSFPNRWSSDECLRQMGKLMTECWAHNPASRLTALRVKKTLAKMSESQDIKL
Dual specificity protein kinase CLK4, sequence (Q9HAZ1 whole entry, looked up): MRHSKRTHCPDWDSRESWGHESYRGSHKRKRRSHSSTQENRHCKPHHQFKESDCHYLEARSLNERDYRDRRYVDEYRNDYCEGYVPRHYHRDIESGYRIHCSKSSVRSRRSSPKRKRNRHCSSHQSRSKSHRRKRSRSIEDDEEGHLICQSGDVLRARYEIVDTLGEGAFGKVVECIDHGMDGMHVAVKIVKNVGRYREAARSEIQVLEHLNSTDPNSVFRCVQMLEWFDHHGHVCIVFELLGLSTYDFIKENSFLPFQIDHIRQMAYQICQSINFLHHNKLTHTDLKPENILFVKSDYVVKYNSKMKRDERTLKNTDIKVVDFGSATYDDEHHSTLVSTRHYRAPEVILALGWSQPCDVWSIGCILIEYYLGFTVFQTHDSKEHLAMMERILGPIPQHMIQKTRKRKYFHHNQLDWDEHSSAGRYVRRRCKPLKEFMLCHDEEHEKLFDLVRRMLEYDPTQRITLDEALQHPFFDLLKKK

Structure (SMILES): Cc1cc([C@@H](C)Nc2ccccc2C(=O)O)c2nc(N3CCOCC3)cc(=O)n2c1 [AZD-6482]
- % of control [1]: 97%

Structure (SMILES): COc1cc(Nc2nc(C)cc(-c3cnn4nc(OC)ccc34)n2)cc(C(F)(F)F)c1
- % of control [2]: 98%

Structure (SMILES): C=CC(=O)Nc1cccc(C(=O)Nc2ccc(Nc3cc(-c4[nH]c(SC)nc4C)ccn3)cc2)c1
- % of control ([3]; at 1 µM): 68%
- % of control ([3]; at 5 µM): 31%
- % of control ([4]; at 1 µM): 81%
- % of control ([4]; at 5 µM): 54%

Structure (SMILES): CC[C@@H]1[C@H](F)C(=O)N[C@@H]1COc1nccc2cc(C(N)=O)c(OC)cc12 [ZIMLOVISERTIB]
- % of inhibition [5]: -4.6%

Structure (SMILES): CCN(CC)CCCCNc1ncc2cc(-c3cc(OC)cc(OC)c3)c(NC(=O)NC(C)(C)C)nc2n1
- % of control [6]: 100%
